Values quoted from earlier work, collected in patent US10966421B2, “Method and device for collecting and preserving cells for analysis” (priority 2002, dated 2021).

Experiments:
[1] = in vivo
[2] = in vivo; remark: listed apart in the source
[3] = in vivo; remark: listed apart in the source

| SMILES | Dermal Toxicity [1] [mg/kg] | LD50 [2] [mg/kg] | Inhalation Toxicity [3] |
| --- | --- | --- | --- |
| O=C(NCO)N(CO)C1(CO)C(=O)NC(=O)N1CO (centres unmarked) [Diazolidinyl urea, diazolidinyl urea] | 2000 | 2570 | None |
| C=O [Formaldehyde, formaldehyde, reference compound] | 270 |  | 500 mg/kg |
